Assay results reported in the NIST ThermoML archive (doi:10.1016/j.jct.2018.01.003).
± gives the expanded uncertainty stated by the source.

Experiment: activity coefficient (dimensionless); of the first substance listed, at infinite dilution; xn = mol fraction of the nth substance listed
Settings: 101.33 kPa, Liquid, Chromatography, x1 = 0

| Compound | activity coefficient (328.15 K) | activity coefficient (338.15 K) | activity coefficient (348.15 K) | activity coefficient (358.15 K) | activity coefficient (368.15 K) |
| --- | --- | --- | --- | --- | --- |
| Cc1ccccc1C [1,2-dimethylbenzene] + CCCCCCCCCCCCCC[P+](CCCCCC)(CCCCCC)CCCCCC.N#CC(=C=[N-])C#N | 0.646 ± 0.044 | 0.677 ± 0.046 | 0.706 ± 0.047 | 0.734 ± 0.049 | 0.76 ± 0.05 |
| Cc1cccc(C)c1 [1,3-dimethylbenzene] + CCCCCCCCCCCCCC[P+](CCCCCC)(CCCCCC)CCCCCC.N#CC(=C=[N-])C#N | 0.713 ± 0.048 | 0.74 ± 0.049 | 0.77 ± 0.05 | 0.8 ± 0.052 | 0.826 ± 0.053 |
| Cc1ccc(C)cc1 [1,4-dimethylbenzene] + CCCCCCCCCCCCCC[P+](CCCCCC)(CCCCCC)CCCCCC.N#CC(=C=[N-])C#N | 0.71 ± 0.047 | 0.742 ± 0.049 | 0.773 ± 0.051 | 0.804 ± 0.052 | 0.83 ± 0.053 |
| C1COCCO1 [1,4-dioxane] + CCCCCCCCCCCCCC[P+](CCCCCC)(CCCCCC)CCCCCC.N#CC(=C=[N-])C#N | 0.578 ± 0.041 | 0.594 ± 0.042 | 0.608 ± 0.043 | 0.628 ± 0.043 | 0.642 ± 0.044 |
| C=CCCCCCCCC [1-decene] + CCCCCCCCCCCCCC[P+](CCCCCC)(CCCCCC)CCCCCC.N#CC(=C=[N-])C#N | 2.32 ± 0.16 | 2.37 ± 0.16 | 2.41 ± 0.16 | 2.45 ± 0.17 | 2.49 ± 0.17 |
| C=CCCCCC [1-heptene] + CCCCCCCCCCCCCC[P+](CCCCCC)(CCCCCC)CCCCCC.N#CC(=C=[N-])C#N | 1.56 ± 0.1 | 1.6 ± 0.11 | 1.64 ± 0.11 | 1.67 ± 0.11 | 1.7 ± 0.11 |
| C#CCCCCC [1-heptyne] + CCCCCCCCCCCCCC[P+](CCCCCC)(CCCCCC)CCCCCC.N#CC(=C=[N-])C#N | 0.938 ± 0.059 | 0.982 ± 0.062 | 1.03 ± 0.06 | 1.07 ± 0.07 | 1.11 ± 0.07 |
| C#CCCCC [1-hexyne] + CCCCCCCCCCCCCC[P+](CCCCCC)(CCCCCC)CCCCCC.N#CC(=C=[N-])C#N | 0.833 ± 0.054 | 0.875 ± 0.056 | 0.914 ± 0.058 | 0.952 ± 0.06 | 0.987 ± 0.062 |
| CCC[N+](=O)[O-] [1-nitropropane] + CCCCCCCCCCCCCC[P+](CCCCCC)(CCCCCC)CCCCCC.N#CC(=C=[N-])C#N |  | 0.557 ± 0.04 | 0.566 ± 0.041 | 0.577 ± 0.041 | 0.585 ± 0.041 |
| C#CCCCCCC [1-octyne] + CCCCCCCCCCCCCC[P+](CCCCCC)(CCCCCC)CCCCCC.N#CC(=C=[N-])C#N | 1.06 ± 0.07 | 1.11 ± 0.07 | 1.16 ± 0.07 | 1.21 ± 0.08 | 1.25 ± 0.08 |
| C=CCCC [1-pentene] + CCCCCCCCCCCCCC[P+](CCCCCC)(CCCCCC)CCCCCC.N#CC(=C=[N-])C#N | 1.25 ± 0.08 | 1.27 ± 0.08 | 1.3 ± 0.08 | 1.32 ± 0.09 | 1.34 ± 0.09 |
| C#CCCC [1-pentyne] + CCCCCCCCCCCCCC[P+](CCCCCC)(CCCCCC)CCCCCC.N#CC(=C=[N-])C#N | 0.76 ± 0.05 | 0.797 ± 0.052 | 0.832 ± 0.054 | 0.863 ± 0.055 | 0.893 ± 0.057 |
| CC(C)CC(C)(C)C [2,2,4-trimethylpentane] + CCCCCCCCCCCCCC[P+](CCCCCC)(CCCCCC)CCCCCC.N#CC(=C=[N-])C#N | 2.22 ± 0.15 | 2.25 ± 0.15 | 2.28 ± 0.16 | 2.31 ± 0.16 | 2.33 ± 0.16 |
| CCC(C)(C)C [2,2-dimethylbutane] + CCCCCCCCCCCCCC[P+](CCCCCC)(CCCCCC)CCCCCC.N#CC(=C=[N-])C#N | 1.85 ± 0.12 | 1.87 ± 0.13 | 1.89 ± 0.13 | 1.91 ± 0.13 | 1.93 ± 0.13 |
| CCOC(C)(C)C [2-ethoxy-2-methylpropane] + CCCCCCCCCCCCCC[P+](CCCCCC)(CCCCCC)CCCCCC.N#CC(=C=[N-])C#N | 1.4 ± 0.09 | 1.45 ± 0.1 | 1.48 ± 0.1 | 1.53 ± 0.1 | 1.56 ± 0.1 |
| CCC(C)(C)OC [2-methoxy-2-methylbutane] + CCCCCCCCCCCCCC[P+](CCCCCC)(CCCCCC)CCCCCC.N#CC(=C=[N-])C#N | 1.01 ± 0.06 | 1.06 ± 0.07 | 1.1 ± 0.07 | 1.14 ± 0.07 | 1.18 ± 0.08 |
| COC(C)(C)C [2-methoxy-2-methylpropane] + CCCCCCCCCCCCCC[P+](CCCCCC)(CCCCCC)CCCCCC.N#CC(=C=[N-])C#N | 0.946 ± 0.06 | 0.99 ± 0.062 | 1.02 ± 0.06 | 1.06 ± 0.07 | 1.1 ± 0.07 |
| CC(C)CO [2-methyl-1-propanol] + CCCCCCCCCCCCCC[P+](CCCCCC)(CCCCCC)CCCCCC.N#CC(=C=[N-])C#N | 0.412 ± 0.034 | 0.418 ± 0.035 | 0.423 ± 0.035 | 0.429 ± 0.035 | 0.434 ± 0.035 |
| CC(C)(C)O [2-methylpropan-2-ol] + CCCCCCCCCCCCCC[P+](CCCCCC)(CCCCCC)CCCCCC.N#CC(=C=[N-])C#N | 0.492 ± 0.037 | 0.503 ± 0.038 | 0.513 ± 0.038 | 0.526 ± 0.039 | 0.537 ± 0.039 |
| CCC(C)CC [3-methylpentane] + CCCCCCCCCCCCCC[P+](CCCCCC)(CCCCCC)CCCCCC.N#CC(=C=[N-])C#N | 1.69 ± 0.11 | 1.72 ± 0.12 | 1.75 ± 0.12 | 1.78 ± 0.12 | 1.8 ± 0.1 |
| C=C(C)c1ccccc1 [(1-methylethenyl)benzene] + CCCCCCCCCCCCCC[P+](CCCCCC)(CCCCCC)CCCCCC.N#CC(=C=[N-])C#N |  | 0.64 ± 0.044 | 0.678 ± 0.046 | 0.716 ± 0.048 | 0.751 ± 0.049 |
| CC(C)=O [acetone] + CCCCCCCCCCCCCC[P+](CCCCCC)(CCCCCC)CCCCCC.N#CC(=C=[N-])C#N | 0.454 ± 0.036 | 0.466 ± 0.036 | 0.477 ± 0.037 | 0.491 ± 0.037 | 0.503 ± 0.038 |
| CC#N [acetonitrile] + CCCCCCCCCCCCCC[P+](CCCCCC)(CCCCCC)CCCCCC.N#CC(=C=[N-])C#N |  | 0.668 ± 0.045 | 0.669 ± 0.045 | 0.671 ± 0.045 | 0.672 ± 0.046 |
| c1ccccc1 [benzene] + CCCCCCCCCCCCCC[P+](CCCCCC)(CCCCCC)CCCCCC.N#CC(=C=[N-])C#N | 0.459 ± 0.036 | 0.481 ± 0.037 | 0.5 ± 0.038 | 0.519 ± 0.039 | 0.536 ± 0.039 |
| CCCCO [butan-1-ol] + CCCCCCCCCCCCCC[P+](CCCCCC)(CCCCCC)CCCCCC.N#CC(=C=[N-])C#N | 0.424 ± 0.035 | 0.435 ± 0.035 | 0.445 ± 0.036 | 0.455 ± 0.036 | 0.464 ± 0.036 |
| CCC(C)O (configuration not stated) [butan-2-ol] + CCCCCCCCCCCCCC[P+](CCCCCC)(CCCCCC)CCCCCC.N#CC(=C=[N-])C#N | 0.457 ± 0.036 | 0.468 ± 0.037 | 0.476 ± 0.037 | 0.486 ± 0.037 | 0.495 ± 0.038 |
